According to article PMC5259778, “Candidate pheromone receptors of codling moth Cydia pomonella respond to pheromones and kairomones” (Scientific Reports, 2017):

Target: CpomOrco + OR6a (Cydia pomonella, UniProt H9A5M1)
Experiment: Calcium imaging of HEK293T cells expressing CpomOrco + OR6a
Assay type: cell-based
Protocol: HEK293T cells were grown in HEK cell media [Dulbecco’s modified Eagle’s medium containing 10% fetal bovine serum (MP Biomedicals, Solon, OH, USA), 2.0 mM L-glutamine, and 100 μg/mL Penicillin/Streptomycin (Invitrogen)] at 37 °C and 5% CO2. To test transient expression of CpomORs for calcium imaging or patch-clamp recording experiments, 35-mm petri dishes containing semi-confluent HEK293T cells were transiently transfected. To transfect cells with CpomOrco, we used 1.0 μg of pcDNA5/TO/CpomOrco DNA. In order to promote expression of the OR[51], we used double aliquots for pcDNA5/TO/CpomOR DNAs (2.0 μg), combined with 1.0 μg of pcDNA5/TO/CpomOrco for co-transfections (CpomOrco + ORs). To report expression for calcium imaging experiments, 1.0 μg of a separate plasmid DNA [pEBFP2-Nuc, a gift from Robert Campbell (Addgene plasmid # 14893[52])] carrying the coding sequence for a blue fluorescent protein (BFP) was used. In patch-clamp recordings, 1.0 μg of a separate plasmid DNA (pXOOM, Clontech) carrying the coding sequence for a green fluorescent protein (GFP) was used to report expression. In order to report candidate OR-expressing cells, expression of both fluorescent reporter genes was under the regulation of the same promoter for CpomOR genes (CMV). Transfection DNAs were dissolved in 100 μL sterile DMEM, mixed with 3.0 μL Calfectin (SignaGen, Rockville, MD, USA) following the recommended protocol. To estimate transfection efficiency, a parallel transfection was conducted using the positive control vector pcDNA5/TO/LACZ (Invitrogen) and staining with 0.1% XGal[53].
Transfections were conducted overnight. HEK cell media was replaced with 1.0 mL fresh media to incubate cells at 37 °C for up to 6 h, at which point part of the cell culture was spread in the middle of a 35-mm plate as individual cells or small clusters. After 12 h of incubation at 37 °C and 5% CO2, cells were rinsed at the sides with 2.0 mL fresh HEK media. Cells were allowed to recover for at least 1 h prior to calcium imaging.
To test activation of olfactory receptors, CpomOrco or CpomOrco + ORs HEK293T cells were incubated for 1 h at room temperature in 0.5–1.0 mL HEK cell Ringer (mM: 140 NaCl, 5.0 KCl, 1.0 CaCl2, 1.0 MgCl2, 10 HEPES, 10 Glucose, pH 7.5) containing the fluorescent calcium indicator Fluo-4AM (Invitrogen) at 5–15 μM prepared with 0.2–0.06% Pluronic F-127 (Invitrogen). After incubation, the buffer was removed and cells were rinsed with 4.0 mL fresh HEK Ca^++ Ringer (mM: 140 NaCl, 2.0 CaCl2, 10 HEPES, pH 7.5), and placed on the stage of an inverted microscope (Olympus IX-71, Olympus Corp., Tokyo, Japan) equipped with a cooled CCD camera (ORCA R2, Hamamatsu, Hamamatsu City, Japan). Cells were continuously superfused with Ca^++ Ringer using two gravity fed perfusion contours. The […] contour washing the cells (~250 μL/min) was switched rapidly to the stimulus contour using a multi-channel rapid solution changer (RSC-160, Bio-Logic, Claix, France) under the software control of Clampex 9 (Molecular Devices, Sunnyvale, CA, USA).
Fluorescence imaging was performed using Imaging Workbench 6 software (INDEC BioSystems, Santa Clara, CA, USA). Each cell was assigned a region of interest (ROI) and changes in fluorescence intensity within each ROI were measured and expressed as the fractional change in fluorescence intensity (dF) or in some cases as dF/F0 where F0 is the basal fluorescence level before agonist application. […] Continuous traces of multiple responses were compensated for slow drift of the baseline fluorescence when necessary. All recordings were performed at room temperature (22–25 °C).
HEK293T cells expressing CpomOrco + OR6a, CpomOrco + OR3 and CpomOrco + OR1 were stimulated with an array of compounds such as: potential insect pheromone compounds and plant volatile synergists active on the olfactory system and behaviour of the codling moth[1][25], non-host plant volatiles active on other tortricids, the methyl pear-ester[33] […]

Sequence of CpomOrco + OR6a (H9A5M1 entry or part of it): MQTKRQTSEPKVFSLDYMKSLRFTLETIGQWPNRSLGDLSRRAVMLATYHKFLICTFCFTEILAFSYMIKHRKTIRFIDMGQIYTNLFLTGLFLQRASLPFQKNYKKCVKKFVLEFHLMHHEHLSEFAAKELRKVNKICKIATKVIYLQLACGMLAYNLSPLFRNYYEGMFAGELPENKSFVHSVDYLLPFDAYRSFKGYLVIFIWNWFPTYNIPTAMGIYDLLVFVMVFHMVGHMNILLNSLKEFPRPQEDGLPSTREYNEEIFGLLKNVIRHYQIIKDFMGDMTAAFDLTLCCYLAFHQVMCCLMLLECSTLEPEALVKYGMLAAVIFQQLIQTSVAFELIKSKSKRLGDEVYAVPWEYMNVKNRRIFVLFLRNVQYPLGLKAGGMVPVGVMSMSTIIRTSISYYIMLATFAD
Sequence of CpomOrco + OR6a (H9A5M2 entry or part of it, further chain): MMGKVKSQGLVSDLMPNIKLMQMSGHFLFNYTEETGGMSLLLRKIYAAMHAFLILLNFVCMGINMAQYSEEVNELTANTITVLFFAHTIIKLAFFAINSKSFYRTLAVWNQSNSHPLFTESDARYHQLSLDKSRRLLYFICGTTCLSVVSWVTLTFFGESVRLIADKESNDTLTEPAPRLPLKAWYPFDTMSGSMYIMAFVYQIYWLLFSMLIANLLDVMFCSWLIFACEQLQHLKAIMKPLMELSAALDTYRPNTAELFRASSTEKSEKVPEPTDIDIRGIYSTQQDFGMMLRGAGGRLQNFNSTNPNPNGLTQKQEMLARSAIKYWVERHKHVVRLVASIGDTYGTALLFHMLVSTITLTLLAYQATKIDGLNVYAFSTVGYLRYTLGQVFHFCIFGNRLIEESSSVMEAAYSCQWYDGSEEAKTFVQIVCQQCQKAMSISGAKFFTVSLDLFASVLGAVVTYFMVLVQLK

SMILES	amplitude of the calcium response (mean of the maximum response ± SEM) (100 μM, n = 70) [dF]	amplitude of the calcium response (mean of the maximum response ± SEM) (250 μM positive control, n = 68) [dF]	amplitude of the calcium response (mean of the maximum response ± SEM) (50 μM, n = 70) [dF]	amplitude of the calcium response (mean of the maximum response ± SEM) (1500 μM, n = 68) [dF]	Emax (HEK-293T, vs 250 μM VUAA3, read-out: amplitude at saturating concentrations relative to the positive control amplitude) [%]	EC50 (calcium response normalized to 250 μM VUAA3) [µM]
CCn1c(SCC(=O)Nc2ccc(C(C)C)cc2)nnc1-c1ccncc1 [VUAA3, acetamide,2-[[4-ethyl-5-(4-pyridinyl)-4H-1,2,4-triazol-3-yl]thio]-N-[4-(1-methylethyl)phenyl]-]	37.96 ± 20.98	69.71 ± 27.29				
C/C=C/C=C/CCCCCCCOC(C)=O [codlemone acetate, (E,E)-8,10-dodecadien-1-yl acetate]			12.04 ± 8.17	18.91 ± 10.31	~27	51.8 ± 13.2
C/C=C/C=C/CCCCCCCO [codlemone, (E,E)-8,10-dodecadien-1-ol]			0.38 ± 1.84	5.7 ± 3.64		
